Laboratory results taken from patent US9499614B2, “Methods for modulating protein glycosylation profiles of recombinant protein therapeutics using monosaccharides and oligosaccharides” (AbbVie, Inc., priority 2013, dated 2016).

Experiments:
Format in all cases: cell-based, Chinese Hamster
[1] = test system: Cell Line 1; assay: N-glycan oligosaccharide profiling, Cell Line 1 shake flasks (Example 1)
Procedure: Two recombinant Chinese Hamster Ovary (CHO) cell lines expressing two different humanized monoclonal antibodies (Antibody 1, Antibody 2) were evaluated in two different culture vessels (shaker flasks and laboratory scale bioreactors). Both cell lines were of CHO DUX-B11 origin based on a dhfr (dihydrofolate reductase) expression system. Both cell lines were cultured in the same chemically defined basal media (CDBM), with Cell Line 1 also utilizing a chemically-defined feed media (CDFM). Each of the respective media were supplemented with selected monosaccharides and oligosaccharides to evaluate their potential impact on the resulting N-glycan oligosaccharide profile. In preparing the cultures, the cell lines were serially expanded through separate seed train inoculums to generate enough cells for inoculation.
(§1) Purified antibodies subjected to additional analytical characterization were purified using MabSelect™ Protein A (GE Healthcare, Piscataway, N.J.) using a low pH, step elution gradient, followed by buffer exchange using Corning Lifesciences (Tewksbury, Mass.) Spin Concentrator X UF columns according to the manufacturers' recommended procedures.
(§2) Approximately 200 μg of Protein A purified samples from Cell Lines 1 and 2 were treated with N-glycanase at 37° C. overnight to remove the N-glycans from the protein. The protein was precipitated and the supernatant was taken for subsequent chemical derivatization of the reducing end of the released glycans with 2-aminobenzamide (2-AB) dye. Following the derivatization step, the excess label was removed using clean up cartridges and the samples were analyzed using normal phase HPLC with fluorescent detection. Mobile phase A was 100% acetonitrile and mobile phase B was 50 mM ammonium formate pH 4.4. The glycans were eluted from a polyamide column (Prozyme, Hayward, Calif.) using a shallow gradient. The labeled glycans were detected using a fluorescence detector with an excitation wavelength of 330 nm and an emission wavelength of 420 nm.
Cell Line 1 was cultured in shake flasks in fedbatch mode after an abbreviated seed train. Sucrose and tagatose were supplemented into chemically-defined basal and feed media at concentrations of 30, 50, and 70 mM, and compared to an unsupplemented control condition. The viable cell density (VCD), viability, and harvest titer results are shown in FIGS. 3A-3C and FIGS. 5A-5C for the sucrose, and tagatose conditions, respectively. Both sugars facilitated a slight decrease in VCD, with the higher concentrations also supporting the lowest peak VCD. […] As such, the upper threshold of sucrose or tagatose concentration should not be exceeded.

[2] = test system: Cell Line 1; assay: N-glycan oligosaccharide profiling, Cell Line 1 in 3 L laboratory-scale bioreactors; details: 50 mM supplement vs control
Procedure: as §1, §2
3 L scale-down model bioreactors were utilized to verify the impact of select sugars on the resulting protein glycosylation profiles. The concentration of the sucrose and tagatose was chosen to minimize any potential adverse impact on cell growth and productivity, but still facilitate a measurable modulation of the glycosylation profile. Cell culture process performance indicators were monitored and measured throughout the respective cultures. Viable cell density, cell viability, lactate, pCO2, osmolality, harvest titer, and harvest N-glycan oligosaccharide data were measured and reported.
3 L scale laboratory bioreactors were utilized to verify the impact of sucrose, tagatose, or fructose on protein glycosylation profiles. Concentrations of the sugars were chosen to minimize any potential adverse impacts on cell growth and productivity, but still facilitate a measurable impact on the glycoform profile. Cell culture process performance indicators were monitored and measured throughout the study. Viable cell density, cell viability, lactate, pCO2, osmolality, harvest titer, and harvest N-glycan oligosaccharide data was measured and reported.

[3] = test system: Cell Line 1; assay: N-glycan oligosaccharide profiling, Cell Line 1 (Antibody 1) shake flasks (Example 2)
Procedure: Two recombinant Chinese Hamster Ovary (CHO) cell lines expressing two different recombinant glycoproteins were evaluated in two different cultures vessels (shaker flasks and 3 L laboratory scale bioreactors). Cell Line 1 expressed Antibody 1, Cell Line 2 expressed Dual Variable Domain Immunoglobulin 1 (DVD 1) and Cell Line 3 expressed Antibody 2. Antibodies 1 and 2 are IgG1 proteins, and DVD 1 is an immunoglobulin with two variable domains as documented previously (Wu C. et al., (2007) Nat. Biotechnol 25(11):1290-1297). All cell lines were of CHO DUX-B11 origin based on a dhfr (dihydrofolate reductase) expression system. All cell lines were cultured in the same chemically defined basal media. Cell lines 1 and 2 were fed with the same chemically-defined feed media, but Cell Line 1 was fed media that was formulated at a 50% higher concentration. Each of the respective media were supplemented with either sucrose or tagatose to evaluate their potential impact on the resulting N-glycan oligosaccharide profile. All sugars were purchased from Sigma-Aldrich (St. Louis, Mo.). In preparation of the cultures, the cell lines were serially expanded through separate seed train inoculums to generate enough cells for inoculation.
as §1, §2
Experimental results are expressed as mean±SD for those results generated from at least three independent cultures. Experimental results are expressed as the measured value for those results generated from less than three independent cultures. Results were evaluated for statistical significance through 2-sided t-tests, with a requirement of p<0.05 relative to the unsupplemented control conditions.
Cell Line 1 was cultured in shake flasks in fedbatch mode after an abbreviated seed train. Sucrose and tagatose were supplemented into chemically-defined basal and feed media at concentrations of 1, 10, 30, 50, and 70 mM, and compared to unsupplemented control conditions. The viable cell density (VCD), viability, and harvest titer results are shown in FIGS. 13A-13C for the sucrose supplemented cultures and FIGS. 14A-14C for the tagatose supplemented cultures.

[4] = 70 mM supplement, absolute % change vs control

OC[C@H]1O[C@@](CO)(O[C@H]2O[C@H](CO)[C@@H](O)[C@H](O)[C@H]2O)[C@@H](O)[C@@H]1O [sucrose]
cumulative increase in overall mannosylated N-glycans ([1]; 70 mM supplement vs control): 43%
decrease in NGA2F species ([1]; 70 mM supplement vs control): 51%
increase in NGA2F-GlcNAc species ([1]; 70 mM supplement vs control): 7%
overall decrease in fucosylation level ([1]; 70 mM supplement vs control): 44%
increase in Man 5 species [1, 4]: 24%
increase in Man 6 species [1, 4]: 12%
increase in Man 7 species [1, 4]: 7%
Man 5 increase [2]: 16%
Man 6 increase [2]: 5%
Man 7 increase [2]: 3%
decrease in NA1F [2]: 3%
decrease in NGA2F species [2]: 29%
increase in NA1F-GlcNAc [2]: 1%
increase in NGA2F-GlcNAc [2]: 7%
increase in overall mannosylation [2]: 24%
overall decrease in fucosylation [2]: 24%
cumulative increase in overall mannosylated N-glycans ([3]; 70 mM supplement vs control): 37%
decrease in NA1F species ([3]; 70 mM supplement vs control): 1%
drop in NGA2F species ([3]; 70 mM supplement vs control): 44%
increase in Man 5 species ([3]; 70 mM supplement vs control): 19%
increase in Man 6 species ([3]; 70 mM supplement vs control): 10%
increase in Man 7 species ([3]; 70 mM supplement vs control): 6%
increase in Man 8 species ([3]; 70 mM supplement vs control): 2%
increase in NGA2F-GlcNAc species ([3]; 70 mM supplement vs control): 8%
overall decrease in the fucosylation level ([3]; 70 mM supplement vs control): 37%
overall N-glycan core fucosylation ([3]; 10, 30, 50 and 70 mM): decreased in a statistically significant manner

O=C(CO)[C@@H](O)[C@@H](O)[C@H](O)CO [tagatose]
cumulative increase in overall mannosylated N-glycans ([1]; 70 mM supplement vs control): 20%
decrease in NGA2F species ([1]; 70 mM supplement vs control): 30%
overall decrease in fucosylation level ([1]; 70 mM supplement vs control): 23%
increase in Man 5 species [1, 4]: ≤ 10%
increase in Man 6 species [1, 4]: 6%
increase in Man 7 species [1, 4]: 3%
increase in Man 8 species [1, 4]: 1%
Man 5 increase [2]: 7%
Man 6 increase [2]: 2%
Man 7 increase [2]: 1%
decrease in NA1F [2]: 3%
decrease in NGA2F species [2]: 15%
increase in NA1F-GlcNAc [2]: 1%
increase in NGA2F-GlcNAc [2]: 6%
increase in overall mannosylation [2]: 10%
overall decrease in fucosylation [2]: 11%
cumulative increase in overall mannosylated N-glycans ([3]; 70 mM supplement vs control): 15%
drop in NGA2F species ([3]; 70 mM supplement vs control): 23%
increase in Man 5 species ([3]; 70 mM supplement vs control): 8%
increase in Man 6 species ([3]; 70 mM supplement vs control): 4%
increase in Man 7 species ([3]; 70 mM supplement vs control): 2%
increase in Man 8 species ([3]; 70 mM supplement vs control): 1%
increase in NGA2F-GlcNAc species ([3]; 70 mM supplement vs control): 8%
overall decrease in the fucosylation level ([3]; 70 mM supplement vs control): 15%
N-glycan profiles compared to the control culture ([3]; 1, 10 and 30 mM): not practically different compared to the control culture
